Results on 2 compounds are retold here after patent US20080300237A1, “Pharmaceutically Active Diazepanes” (priority 2005, published 2008).

What is called IC50 is the concentration that gives 50% inhibition.

SMILES strings stand for the structures.

The test concerns the target T1, human LFA-1 (Homo sapiens, UniProt P20701).
T1 construct: endogenous in cells; host or cells: JY cells (human lymphoblastoid B cell line); The ICAM-1 fusion partner is made in the baculovirus system
Kind of test: In vitro cell free assay: binding of soluble human ICAM-1 to immobilized human LFA-1. Particulars: immobilized human LFA-1, biotinylated recombinant ICAM-1, read-out: IC50, inhibition of adhesion of LFA-1 to ICAM-1. On the procedure: A. In Vitro TEST SYSTEM (Cell Free Assay)
The assay determines the binding of soluble human ICAM-1 to immobilized human LFA-1. LFA-1 is purified from JY cells, a human lymphoblastoid B cell-line, by immunoaffinity chromatography analogously as described by Dustin et al., J. Immunol. 148, 2654-2663, 1992. ICAM-1 mouse Cκ fusion protein (ICAM-1) is produced using the baculovirus system as described by Weitz-Schmidt et al., Anal. Biochem. 238, 184-190, 1996.
Purified LFA-1 is diluted 1:20 in phosphate buffered saline (PBS) containing 2 mM MgCl2, pH 7.4 and coated onto microtiter plates (Nunc) at 37° for 3 hours. Plates are blocked with 1% heat-treated bovine serum albumin in PBS for 2 hours at 37° followed by a washing step using PBS, 2 mM MgCl2, 1% fetal calf serum, pH 7.4 (assay buffer). Compounds of the present invention (10 mM solution in DMSO) are diluted in assay buffer and added to the plates. Biotinylated recombinant ICAM-1 in assay buffer (6 μg/ml) is added and allowed to bind at 37° for one hour. After incubation, wells are washed with assay buffer. Streptavidinperoxidase diluted 1:5000 in assay buffer is added and incubated for 45 min at 37°. […] The reaction is stopped after 20 minutes and bound ICAM-1 is determined by measuring the optical density at 405 nm in a microplate reader.

T1 sequence (P20701 26-1170): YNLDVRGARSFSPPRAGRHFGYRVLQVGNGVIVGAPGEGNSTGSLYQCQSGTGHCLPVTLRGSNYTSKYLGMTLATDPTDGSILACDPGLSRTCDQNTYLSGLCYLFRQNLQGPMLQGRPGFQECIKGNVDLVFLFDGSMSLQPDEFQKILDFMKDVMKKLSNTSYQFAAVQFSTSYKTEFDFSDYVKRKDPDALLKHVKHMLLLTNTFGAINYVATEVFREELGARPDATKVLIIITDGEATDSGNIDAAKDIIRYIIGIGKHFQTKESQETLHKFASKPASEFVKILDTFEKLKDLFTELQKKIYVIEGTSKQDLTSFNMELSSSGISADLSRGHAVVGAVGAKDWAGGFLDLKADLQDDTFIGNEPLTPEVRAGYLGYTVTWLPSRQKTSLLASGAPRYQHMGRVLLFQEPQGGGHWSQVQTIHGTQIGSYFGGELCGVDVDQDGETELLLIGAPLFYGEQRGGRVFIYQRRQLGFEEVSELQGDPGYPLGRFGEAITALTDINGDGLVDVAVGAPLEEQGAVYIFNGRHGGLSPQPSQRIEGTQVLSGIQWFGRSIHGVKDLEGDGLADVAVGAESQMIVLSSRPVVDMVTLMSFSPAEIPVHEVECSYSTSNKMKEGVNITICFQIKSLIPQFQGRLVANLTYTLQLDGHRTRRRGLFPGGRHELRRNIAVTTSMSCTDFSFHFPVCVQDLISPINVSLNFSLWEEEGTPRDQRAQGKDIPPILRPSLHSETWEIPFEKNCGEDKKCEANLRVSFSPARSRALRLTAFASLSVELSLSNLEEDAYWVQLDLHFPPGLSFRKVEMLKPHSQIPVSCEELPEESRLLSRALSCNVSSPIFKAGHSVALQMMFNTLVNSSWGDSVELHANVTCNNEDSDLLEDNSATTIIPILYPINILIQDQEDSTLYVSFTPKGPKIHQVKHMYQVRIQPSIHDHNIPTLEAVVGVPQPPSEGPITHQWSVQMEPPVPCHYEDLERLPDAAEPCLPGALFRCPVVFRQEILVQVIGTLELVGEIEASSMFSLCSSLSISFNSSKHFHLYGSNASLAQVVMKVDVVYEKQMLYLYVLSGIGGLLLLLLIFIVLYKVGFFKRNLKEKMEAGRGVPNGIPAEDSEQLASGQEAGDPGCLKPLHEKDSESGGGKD
T1 sequence (P05107 23-769 partner): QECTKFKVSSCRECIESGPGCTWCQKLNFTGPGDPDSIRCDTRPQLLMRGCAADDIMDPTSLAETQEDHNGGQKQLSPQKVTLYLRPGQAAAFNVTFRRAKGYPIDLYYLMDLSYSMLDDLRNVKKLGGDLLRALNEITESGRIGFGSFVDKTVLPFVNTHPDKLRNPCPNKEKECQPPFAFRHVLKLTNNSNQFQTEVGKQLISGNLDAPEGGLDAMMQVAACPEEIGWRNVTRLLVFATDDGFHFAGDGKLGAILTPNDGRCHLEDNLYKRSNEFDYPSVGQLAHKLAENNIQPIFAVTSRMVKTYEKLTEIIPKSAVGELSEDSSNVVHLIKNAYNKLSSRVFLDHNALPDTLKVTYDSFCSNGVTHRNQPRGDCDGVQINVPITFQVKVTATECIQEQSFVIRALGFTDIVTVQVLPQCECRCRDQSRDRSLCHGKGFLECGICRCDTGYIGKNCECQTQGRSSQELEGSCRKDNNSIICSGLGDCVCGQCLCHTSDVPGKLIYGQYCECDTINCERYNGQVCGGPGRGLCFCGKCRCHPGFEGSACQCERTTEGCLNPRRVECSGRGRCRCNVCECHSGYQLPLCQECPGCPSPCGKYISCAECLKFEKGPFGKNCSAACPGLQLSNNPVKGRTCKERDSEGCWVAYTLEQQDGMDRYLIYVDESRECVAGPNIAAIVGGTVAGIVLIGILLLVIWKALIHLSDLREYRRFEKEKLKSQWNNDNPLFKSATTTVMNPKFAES

With `C[C@@H]1CCN([C@H](Cc2cccc3ccccc23)C(N)=O)C(=O)[C@H](c2cccc(Cl)c2)N1C(=O)CNC(=O)c1ccccc1` [Example 13, N-{2-[(2S,7R)-4-((R)-1-Carbamoyl-2-naphthalen-1-yl-ethyl)-2-(3-chloro-phenyl)-7-methyl-3-oxo-[1,4]diazepan-1-yl]-2-oxo-ethyl}-benzamide], the half-inhibitory concentration (IC50) was found to be 430 nM.
The result for `C[C@@H]1CCN([C@H](Cc2cccc3ccccc23)C(N)=O)C(=O)[C@H](c2cccc(Cl)c2)N1C(=O)CNC(=O)[C@@H]1CCCN1` [Example 14, (S)-Pyrrolidine-2-carboxylic acid {2-[(2S,7R)-4-((R)-1-carbamoyl-2-naphthalen-1-yl-ethyl)-2-(3-chloro-phenyl)-7-methyl-3-oxo-[1,4]diazepan-1-yl]-2-oxo-ethyl}-amide] reads 90 nM.
